Test results taken from publication PMC5097156, “Potent and selective chemical probe of hypoxic signalling downstream of HIF-α hydroxylation via VHL inhibition” (Nature Communications, 2016).

Columns and labels:
Test in all cases: biochemical
[1] = target: T1, JNK1 (Homo sapiens, UniProt P45983); design: Dundee MRC-PPU Express kinase screen, remaining kinase activity; conditions: read-out: Mean % of remaining kinase activity (±sd)
T1 construct: gene MAPK8

[2] = target: T2, MKK1 (Homo sapiens, UniProt Q02750); design: Dundee MRC-PPU Express kinase screen, remaining kinase activity; conditions: read-out: Mean % of remaining kinase activity (±sd)
T2 construct: gene MAP2K1
T2 sequence (Q02750 whole entry): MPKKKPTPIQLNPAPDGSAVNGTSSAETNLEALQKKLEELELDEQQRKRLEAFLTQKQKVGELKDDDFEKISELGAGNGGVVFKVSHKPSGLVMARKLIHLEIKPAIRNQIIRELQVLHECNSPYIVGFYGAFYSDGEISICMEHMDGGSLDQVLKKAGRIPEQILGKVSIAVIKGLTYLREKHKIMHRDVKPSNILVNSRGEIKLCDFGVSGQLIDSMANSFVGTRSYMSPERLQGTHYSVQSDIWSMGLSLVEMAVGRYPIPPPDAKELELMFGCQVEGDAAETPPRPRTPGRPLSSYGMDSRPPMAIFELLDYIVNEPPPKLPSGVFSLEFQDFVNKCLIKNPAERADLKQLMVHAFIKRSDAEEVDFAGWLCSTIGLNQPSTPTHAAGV

[3] = target: T3, MLK3 (Homo sapiens, UniProt Q16584); design: Dundee MRC-PPU Express kinase screen, remaining kinase activity; conditions: read-out: Mean % of remaining kinase activity (±sd)
T3 construct: gene MAP3K11

[4] = target: SRPK1 (Homo sapiens, UniProt Q96SB4); design: Dundee MRC-PPU Express kinase screen, remaining kinase activity; conditions: read-out: Mean % of remaining kinase activity (±sd)
Chain of SRPK1 (Q96SB4 whole entry): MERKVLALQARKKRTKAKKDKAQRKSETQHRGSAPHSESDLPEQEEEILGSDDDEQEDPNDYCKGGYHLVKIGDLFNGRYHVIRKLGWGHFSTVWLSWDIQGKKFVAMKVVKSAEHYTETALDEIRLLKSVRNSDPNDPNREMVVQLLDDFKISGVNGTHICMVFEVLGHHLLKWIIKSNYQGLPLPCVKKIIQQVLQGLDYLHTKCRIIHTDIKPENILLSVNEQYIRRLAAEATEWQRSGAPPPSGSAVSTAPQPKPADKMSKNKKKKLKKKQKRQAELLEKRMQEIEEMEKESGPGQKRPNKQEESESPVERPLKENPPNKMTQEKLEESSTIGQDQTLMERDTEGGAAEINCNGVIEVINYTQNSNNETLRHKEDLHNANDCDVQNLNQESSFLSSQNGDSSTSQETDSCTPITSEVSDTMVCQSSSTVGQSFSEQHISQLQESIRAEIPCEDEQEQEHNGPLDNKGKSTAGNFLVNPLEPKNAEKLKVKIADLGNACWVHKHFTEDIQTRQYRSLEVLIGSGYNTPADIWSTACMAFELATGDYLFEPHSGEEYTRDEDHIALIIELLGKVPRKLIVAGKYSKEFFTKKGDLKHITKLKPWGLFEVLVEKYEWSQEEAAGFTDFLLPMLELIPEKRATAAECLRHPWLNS

[5] = target: T4, SmMLCK (Homo sapiens, UniProt Q15746); design: Dundee MRC-PPU Express kinase screen, remaining kinase activity; conditions: read-out: Mean % of remaining kinase activity (±sd)
T4 construct: gene MYLK; smooth muscle

[6] = target: TBK1 (Homo sapiens, UniProt Q9UHD2); design: Dundee MRC-PPU Express kinase screen, remaining kinase activity; conditions: read-out: Mean % of remaining kinase activity (±sd)
[7] = target: T5, 5-HT1B (Rattus norvegicus, UniProt P28564); design: CEREP ExpresSProfile competition binding, remaining control specific binding of reference compound; conditions: radioligand binding; read-out: Mean % of control specific binding (±sd)
T5 construct: gene Htr1b; rat cerebral cortex
T5 sequence (P28564 whole entry): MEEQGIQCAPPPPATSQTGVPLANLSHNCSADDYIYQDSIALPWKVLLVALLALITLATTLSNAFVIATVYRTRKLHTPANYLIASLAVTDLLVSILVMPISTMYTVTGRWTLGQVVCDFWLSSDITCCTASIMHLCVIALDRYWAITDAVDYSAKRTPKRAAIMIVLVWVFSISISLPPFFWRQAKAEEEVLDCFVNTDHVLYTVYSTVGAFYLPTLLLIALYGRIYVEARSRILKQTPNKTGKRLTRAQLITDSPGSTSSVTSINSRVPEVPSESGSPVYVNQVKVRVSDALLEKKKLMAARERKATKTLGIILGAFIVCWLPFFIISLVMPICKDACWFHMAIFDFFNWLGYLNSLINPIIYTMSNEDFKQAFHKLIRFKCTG

[8] = target: T6, 5-HT6 (h) (Homo sapiens, UniProt P50406); design: CEREP ExpresSProfile competition binding, remaining control specific binding of reference compound; conditions: radioligand binding; read-out: Mean % of control specific binding (±sd)
T6 construct: gene HTR6
T6 sequence (P50406 whole entry): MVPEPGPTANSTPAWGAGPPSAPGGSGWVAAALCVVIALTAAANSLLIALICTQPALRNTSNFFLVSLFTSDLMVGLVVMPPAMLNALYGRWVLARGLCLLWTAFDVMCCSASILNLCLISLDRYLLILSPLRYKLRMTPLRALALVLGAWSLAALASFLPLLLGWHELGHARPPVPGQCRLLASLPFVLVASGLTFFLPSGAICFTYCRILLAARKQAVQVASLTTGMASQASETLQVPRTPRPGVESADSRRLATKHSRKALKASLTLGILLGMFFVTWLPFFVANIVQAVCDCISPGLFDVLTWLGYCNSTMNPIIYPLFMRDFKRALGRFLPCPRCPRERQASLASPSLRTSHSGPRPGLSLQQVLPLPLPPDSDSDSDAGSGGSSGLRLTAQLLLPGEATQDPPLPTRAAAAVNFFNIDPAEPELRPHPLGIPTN

[9] = target: T7, AT1 (h) (Homo sapiens, UniProt P30556); design: CEREP ExpresSProfile competition binding, remaining control specific binding of reference compound; conditions: radioligand binding; read-out: Mean % of control specific binding (±sd)
T7 construct: gene AGTR1

[10] = target: T8, B2 (h) (Homo sapiens, UniProt P30411); design: CEREP ExpresSProfile competition binding, remaining control specific binding of reference compound; conditions: radioligand binding; read-out: Mean % of control specific binding (±sd)
T8 construct: gene BDKRB2
T8 sequence (P30411 whole entry): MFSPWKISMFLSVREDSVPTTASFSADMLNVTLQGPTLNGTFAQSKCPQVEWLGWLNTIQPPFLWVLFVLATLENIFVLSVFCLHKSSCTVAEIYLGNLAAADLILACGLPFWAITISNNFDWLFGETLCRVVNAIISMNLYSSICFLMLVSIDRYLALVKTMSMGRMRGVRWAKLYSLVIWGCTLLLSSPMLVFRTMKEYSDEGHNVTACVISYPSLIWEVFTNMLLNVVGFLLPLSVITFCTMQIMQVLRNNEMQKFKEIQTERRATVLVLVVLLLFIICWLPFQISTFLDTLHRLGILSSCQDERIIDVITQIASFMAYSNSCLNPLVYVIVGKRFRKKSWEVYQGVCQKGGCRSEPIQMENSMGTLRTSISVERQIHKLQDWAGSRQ

[11] = target: T9, CCK1 (CCKA) (h) (Homo sapiens, UniProt P32238); design: CEREP ExpresSProfile competition binding, remaining control specific binding of reference compound; conditions: radioligand binding; read-out: Mean % of control specific binding (±sd)
T9 construct: gene CCKAR
T9 sequence (P32238 whole entry): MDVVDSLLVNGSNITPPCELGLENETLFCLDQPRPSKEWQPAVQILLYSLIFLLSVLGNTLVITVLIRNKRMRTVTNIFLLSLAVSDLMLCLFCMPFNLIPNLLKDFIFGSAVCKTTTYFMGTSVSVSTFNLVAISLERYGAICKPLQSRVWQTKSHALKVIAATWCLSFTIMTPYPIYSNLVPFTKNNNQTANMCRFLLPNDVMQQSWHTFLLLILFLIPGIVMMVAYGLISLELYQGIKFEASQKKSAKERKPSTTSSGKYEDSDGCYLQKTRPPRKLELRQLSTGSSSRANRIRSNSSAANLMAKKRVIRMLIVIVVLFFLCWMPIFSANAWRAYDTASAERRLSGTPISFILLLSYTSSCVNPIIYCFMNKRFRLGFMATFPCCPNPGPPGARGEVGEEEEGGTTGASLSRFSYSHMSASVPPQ

[12] = target: CCR1 (h) (Homo sapiens, UniProt P32246); design: CEREP ExpresSProfile competition binding, remaining control specific binding of reference compound; conditions: radioligand binding; read-out: Mean % of control specific binding (±sd)
Chain of CCR1 (h) (P32246 whole entry): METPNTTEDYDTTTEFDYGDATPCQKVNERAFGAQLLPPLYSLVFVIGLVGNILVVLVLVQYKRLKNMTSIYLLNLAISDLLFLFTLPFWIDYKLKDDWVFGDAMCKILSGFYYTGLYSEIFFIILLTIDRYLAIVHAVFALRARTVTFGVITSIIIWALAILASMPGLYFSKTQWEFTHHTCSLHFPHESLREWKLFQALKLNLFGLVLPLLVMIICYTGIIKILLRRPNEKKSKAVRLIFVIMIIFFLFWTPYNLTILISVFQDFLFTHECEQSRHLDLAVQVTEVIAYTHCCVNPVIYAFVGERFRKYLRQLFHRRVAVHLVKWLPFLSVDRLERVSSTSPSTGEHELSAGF

[13] = target: CXCR2 (IL-8B) (h) (Homo sapiens, UniProt P25025); design: CEREP ExpresSProfile competition binding, remaining control specific binding of reference compound; conditions: radioligand binding; read-out: Mean % of control specific binding (±sd)
[14] = target: T10, D2S (h) (Homo sapiens, UniProt P14416); design: CEREP ExpresSProfile competition binding, remaining control specific binding of reference compound; conditions: radioligand binding; read-out: Mean % of control specific binding (±sd)
T10 construct: gene DRD2; D2S short isoform

[15] = target: T11, EP4 (h) (Homo sapiens, UniProt P35408); design: CEREP ExpresSProfile competition binding, remaining control specific binding of reference compound; conditions: radioligand binding; read-out: Mean % of control specific binding (±sd)
T11 construct: gene PTGER4

[16] = target: T12, GAL2 (h) (Homo sapiens, UniProt O43603); design: CEREP ExpresSProfile competition binding, remaining control specific binding of reference compound; conditions: radioligand binding; read-out: Mean % of control specific binding (±sd)
T12 construct: gene GALR2
T12 sequence (O43603 whole entry): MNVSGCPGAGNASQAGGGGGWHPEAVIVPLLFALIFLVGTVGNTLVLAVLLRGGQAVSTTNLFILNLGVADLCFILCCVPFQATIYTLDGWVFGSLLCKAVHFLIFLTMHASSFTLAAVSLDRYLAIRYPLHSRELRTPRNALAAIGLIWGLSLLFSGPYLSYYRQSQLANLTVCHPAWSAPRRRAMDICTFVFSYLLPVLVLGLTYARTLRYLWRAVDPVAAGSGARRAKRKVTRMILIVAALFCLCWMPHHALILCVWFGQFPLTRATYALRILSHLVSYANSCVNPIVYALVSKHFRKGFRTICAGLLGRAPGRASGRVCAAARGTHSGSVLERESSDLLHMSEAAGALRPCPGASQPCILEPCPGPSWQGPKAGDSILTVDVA

[17] = target: T13, MC4 (h) (Homo sapiens, UniProt P32245); design: CEREP ExpresSProfile competition binding, remaining control specific binding of reference compound; conditions: radioligand binding; read-out: Mean % of control specific binding (±sd)
T13 construct: gene MC4R

[18] = target: T14, MT1 (ML1A) (h) (Homo sapiens, UniProt P48039); design: CEREP ExpresSProfile competition binding, remaining control specific binding of reference compound; conditions: radioligand binding; read-out: Mean % of control specific binding (±sd)
T14 construct: gene MTNR1A

[19] = target: T15, NOP (ORL1) (h) (Homo sapiens, UniProt P41146); design: CEREP ExpresSProfile competition binding, remaining control specific binding of reference compound; conditions: radioligand binding; read-out: Mean % of control specific binding (±sd)
T15 construct: gene OPRL1

[20] = target: T16, NTS1 (NT1) (h) (Homo sapiens, UniProt P30989); design: CEREP ExpresSProfile competition binding, remaining control specific binding of reference compound; conditions: radioligand binding; read-out: Mean % of control specific binding (±sd)
T16 construct: gene NTSR1

[21] = target: T17, VPAC1 (VIP1) (h) (Homo sapiens, UniProt P32241); design: CEREP ExpresSProfile competition binding, remaining control specific binding of reference compound; conditions: radioligand binding; read-out: Mean % of control specific binding (±sd)
T17 construct: gene VIPR1

[22] = target: T18, Y2 (h) (Homo sapiens, UniProt P49146); design: CEREP ExpresSProfile competition binding, remaining control specific binding of reference compound; conditions: radioligand binding; read-out: Mean % of control specific binding (±sd)
T18 construct: gene NPY2R

[23] = target: T19, beta 1 (h) (Homo sapiens, UniProt P08588); design: CEREP ExpresSProfile competition binding, remaining control specific binding of reference compound; conditions: radioligand binding; read-out: Mean % of control specific binding (±sd)
T19 construct: gene ADRB1
T19 sequence (P08588 whole entry): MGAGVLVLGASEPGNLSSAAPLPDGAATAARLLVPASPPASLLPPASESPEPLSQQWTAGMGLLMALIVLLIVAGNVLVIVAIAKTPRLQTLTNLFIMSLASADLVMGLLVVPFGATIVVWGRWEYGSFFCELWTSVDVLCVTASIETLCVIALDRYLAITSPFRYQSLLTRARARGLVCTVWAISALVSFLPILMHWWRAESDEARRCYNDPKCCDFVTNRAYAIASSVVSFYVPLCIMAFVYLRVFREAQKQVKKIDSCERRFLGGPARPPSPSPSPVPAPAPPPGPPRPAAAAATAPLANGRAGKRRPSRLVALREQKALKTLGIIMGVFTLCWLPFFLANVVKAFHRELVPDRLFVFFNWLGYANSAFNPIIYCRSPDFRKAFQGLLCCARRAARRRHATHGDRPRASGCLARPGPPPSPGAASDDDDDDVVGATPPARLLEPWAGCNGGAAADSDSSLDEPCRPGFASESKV

[24] = target: T20, beta 2 (h) (Homo sapiens, UniProt P07550); design: CEREP ExpresSProfile competition binding, remaining control specific binding of reference compound; conditions: radioligand binding; read-out: Mean % of control specific binding (±sd)
T20 construct: gene ADRB2

[25] = target: T21, norepinephrine transporter (h) (Homo sapiens, UniProt P23975); design: CEREP ExpresSProfile competition binding, remaining control specific binding of reference compound; conditions: radioligand binding; read-out: Mean % of control specific binding (±sd)
T21 construct: gene SLC6A2
T21 sequence (P23975 whole entry): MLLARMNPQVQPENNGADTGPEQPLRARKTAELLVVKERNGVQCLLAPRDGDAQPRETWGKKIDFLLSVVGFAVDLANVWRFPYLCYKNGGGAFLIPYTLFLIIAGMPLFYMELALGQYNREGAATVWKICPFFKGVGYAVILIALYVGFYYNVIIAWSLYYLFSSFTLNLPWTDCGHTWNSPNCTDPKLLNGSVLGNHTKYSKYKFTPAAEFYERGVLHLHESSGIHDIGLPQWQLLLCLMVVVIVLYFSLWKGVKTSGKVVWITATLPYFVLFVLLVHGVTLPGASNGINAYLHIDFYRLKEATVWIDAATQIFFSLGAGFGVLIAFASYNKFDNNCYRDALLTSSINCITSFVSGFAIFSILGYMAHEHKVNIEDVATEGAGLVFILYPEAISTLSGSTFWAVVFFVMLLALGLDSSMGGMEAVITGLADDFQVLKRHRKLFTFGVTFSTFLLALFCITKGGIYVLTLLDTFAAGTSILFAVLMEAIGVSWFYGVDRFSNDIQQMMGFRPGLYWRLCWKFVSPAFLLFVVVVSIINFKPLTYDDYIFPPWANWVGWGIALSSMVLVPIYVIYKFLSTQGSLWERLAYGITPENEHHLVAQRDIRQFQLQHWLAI

T1 sequence (P45983 whole entry): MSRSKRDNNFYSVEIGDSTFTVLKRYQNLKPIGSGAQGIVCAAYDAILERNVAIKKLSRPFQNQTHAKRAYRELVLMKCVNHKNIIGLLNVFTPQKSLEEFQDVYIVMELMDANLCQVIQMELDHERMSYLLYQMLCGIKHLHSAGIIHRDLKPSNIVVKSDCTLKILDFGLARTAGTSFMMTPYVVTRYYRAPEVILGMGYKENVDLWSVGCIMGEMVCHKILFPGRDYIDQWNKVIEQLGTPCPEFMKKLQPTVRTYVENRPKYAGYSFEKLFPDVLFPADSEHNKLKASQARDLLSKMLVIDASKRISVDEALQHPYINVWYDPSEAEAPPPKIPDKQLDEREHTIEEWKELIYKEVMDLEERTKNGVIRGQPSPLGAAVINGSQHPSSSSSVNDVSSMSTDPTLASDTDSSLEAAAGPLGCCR

With Cc1ncsc1-c1ccc(CNC(=O)[C@@H]2C[C@@H](O)CN2C(=O)[C@@H](NC(=O)C2(C#N)CC2)C(C)(C)C)cc1 [VH298] the remaining activity at 50 µM [1] was 119%, the remaining activity at 50 µM [2] was 85% and the remaining activity at 50 µM [3] was 95%. The remaining activity at 50 µM [4] was 101%, the remaining activity at 50 µM [5] was 105% and the remaining activity at 50 µM [6] was 110%. For the same compound, the remaining binding at 50 µM [7] was 117%, the remaining binding at 50 µM [8] was 92% and the remaining binding at 50 µM [9] was 84%. It also gave a remaining binding at 50 µM [10] of 101%, a remaining binding at 50 µM [11] of 127% and a remaining binding at 50 µM [12] of 111%. The remaining binding at 50 µM [13] was 102%, the remaining binding at 50 µM [14] was 91% and the remaining binding at 50 µM [15] was 95%. For the same compound, the remaining binding at 50 µM [16] was 87%, the remaining binding at 50 µM [17] was 98% and the remaining binding at 50 µM [18] was 75%. The remaining binding at 50 µM [19] was 92%, the remaining binding at 50 µM [20] was 103% and the remaining binding at 50 µM [21] was 85%. For the same compound, the remaining binding at 50 µM [22] was 97%, the remaining binding at 50 µM [23] was 83% and the remaining binding at 50 µM [24] was 95%. For the same compound, the remaining binding at 50 µM [25] was 96%.
